Drawing on patent US8148391B2 (Cephalon, Inc., priority 2006, dated 2012), this text covers IC50 for 23 compounds.

Some results are limits rather than exact numbers.

Assay [1] deals with T1, baculovirus-expressed ALK (Homo sapiens, UniProt Q9UM73).
T1 construct: host or cells: baculovirus expression system
In words: ALK Kinase Assay (ELISA-type, time-resolved fluorescence). The class given is biochemical. The following applies: ALK kinase inhibition, 1 μM ATP; read-out: ALK Activity. Put shortly: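 Substrate coating: phospholipase C-γ, 10 μg/mL in TBS. Kinase step: 30 ng/ml ALK, 15 min, 37° C. Detection and analysis: Eu-N1 PT66 antibody, with IC50 fitted as a sigmoidal variable-slope dose-response curve.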
A general note: An ELISA detects its analyte on a solid surface through an enzyme-linked reagent.

Assay [2] concerns the target T2, c-Met (cytoplasmic domain) (Homo sapiens, UniProt P08581).
T2 construct: 10 ng/mL c-Met (cytoplasmic domain, Invitrogen Corporation #PV3143); purchased Invitrogen Corporation PV3143
Nature of the assay: c-Met Kinase Assay (same methods as for ALK, with modifications). It counts as biochemical. The following applies: c-Met kinase inhibition, 1 μM ATP; read-out: cMet Activity. Put shortly:
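This plate-based kinase format uses immobilized phospholipase C-γ as substrate, phosphorylated by c-Met cytoplasmic domain (10 ng/mL) at 37° C for 15 minutes.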

T2 sequence (P08581 956-1390 limits assumed): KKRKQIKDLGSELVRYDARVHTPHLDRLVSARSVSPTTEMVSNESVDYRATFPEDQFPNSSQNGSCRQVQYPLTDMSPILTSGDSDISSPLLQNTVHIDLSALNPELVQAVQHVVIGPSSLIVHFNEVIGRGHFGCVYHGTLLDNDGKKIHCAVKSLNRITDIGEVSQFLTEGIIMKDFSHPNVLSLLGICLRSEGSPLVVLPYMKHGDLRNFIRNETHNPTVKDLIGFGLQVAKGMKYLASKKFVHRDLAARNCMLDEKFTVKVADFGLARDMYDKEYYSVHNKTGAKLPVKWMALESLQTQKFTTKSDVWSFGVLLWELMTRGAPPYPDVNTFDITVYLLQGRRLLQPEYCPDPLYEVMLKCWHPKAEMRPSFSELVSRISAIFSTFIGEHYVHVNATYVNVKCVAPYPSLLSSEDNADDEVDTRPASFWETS
T1 sequence (Q9UM73 19-1620): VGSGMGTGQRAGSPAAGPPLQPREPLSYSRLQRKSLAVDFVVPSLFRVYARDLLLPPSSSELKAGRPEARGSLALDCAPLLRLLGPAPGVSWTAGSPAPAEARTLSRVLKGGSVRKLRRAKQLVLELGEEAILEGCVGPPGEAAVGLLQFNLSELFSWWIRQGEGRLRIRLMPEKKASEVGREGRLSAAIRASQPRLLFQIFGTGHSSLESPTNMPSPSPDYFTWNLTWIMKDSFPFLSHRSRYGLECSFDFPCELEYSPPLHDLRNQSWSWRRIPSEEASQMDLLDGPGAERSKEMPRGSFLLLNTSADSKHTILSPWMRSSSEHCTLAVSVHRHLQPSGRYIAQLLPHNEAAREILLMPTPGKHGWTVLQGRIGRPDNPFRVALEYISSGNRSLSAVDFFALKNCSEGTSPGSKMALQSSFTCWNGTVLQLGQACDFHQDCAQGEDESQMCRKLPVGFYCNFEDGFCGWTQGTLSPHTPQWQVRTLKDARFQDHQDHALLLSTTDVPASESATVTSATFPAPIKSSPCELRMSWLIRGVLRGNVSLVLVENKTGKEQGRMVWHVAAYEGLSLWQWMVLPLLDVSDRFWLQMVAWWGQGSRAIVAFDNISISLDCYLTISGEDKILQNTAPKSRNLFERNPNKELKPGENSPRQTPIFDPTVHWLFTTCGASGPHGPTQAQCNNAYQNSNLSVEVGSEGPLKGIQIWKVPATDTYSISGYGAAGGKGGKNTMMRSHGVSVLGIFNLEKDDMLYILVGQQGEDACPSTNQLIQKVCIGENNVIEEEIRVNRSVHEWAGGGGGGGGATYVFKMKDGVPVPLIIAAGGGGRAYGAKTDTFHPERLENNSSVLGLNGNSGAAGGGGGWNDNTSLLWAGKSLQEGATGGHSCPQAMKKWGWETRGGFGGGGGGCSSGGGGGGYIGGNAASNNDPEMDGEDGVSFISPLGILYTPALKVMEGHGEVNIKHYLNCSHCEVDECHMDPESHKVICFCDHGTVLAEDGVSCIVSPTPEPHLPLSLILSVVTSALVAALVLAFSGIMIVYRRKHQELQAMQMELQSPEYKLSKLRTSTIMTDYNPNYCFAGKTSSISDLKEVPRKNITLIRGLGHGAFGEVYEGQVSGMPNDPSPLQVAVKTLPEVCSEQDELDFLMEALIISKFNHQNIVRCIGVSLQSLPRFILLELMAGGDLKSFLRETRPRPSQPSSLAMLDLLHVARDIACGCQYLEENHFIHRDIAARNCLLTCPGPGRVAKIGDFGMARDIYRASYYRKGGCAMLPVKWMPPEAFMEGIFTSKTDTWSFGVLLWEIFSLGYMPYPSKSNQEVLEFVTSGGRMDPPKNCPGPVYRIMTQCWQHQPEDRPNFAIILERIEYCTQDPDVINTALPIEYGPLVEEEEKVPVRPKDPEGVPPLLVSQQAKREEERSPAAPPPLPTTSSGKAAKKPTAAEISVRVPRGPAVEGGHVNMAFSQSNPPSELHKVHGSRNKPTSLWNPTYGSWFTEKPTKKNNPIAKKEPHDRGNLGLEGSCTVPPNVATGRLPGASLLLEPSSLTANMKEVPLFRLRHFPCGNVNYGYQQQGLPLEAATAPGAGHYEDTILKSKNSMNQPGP

For the compound `CNC(=O)c1cccc(F)c1Nc1nc(Nc2ccc3c(c2)N(C(=O)CN2CCCC2)CCCO3)ncc1Cl` [Example 1704, 2-{5-Chloro-2-[9-(2-pyrrolidin-1-yl-acetyl)-6,7,8,9-tetrahydro-5-oxa-9-aza-benzocyclohepten-2-ylamino]-pyrimidin-4-ylamino}-3-fluoro-N-methyl-benzamide], the IC50 in assay [1] fell in the range of 1000 to 10000 nM; in assay [2], 100 to 1000 nM.
With `CNC(=O)c1sccc1Nc1nc(Nc2ccc3c(c2)N(C(=O)CN2CCCC2)CCCO3)ncc1Cl` [Example 1705, 3-{5-Chloro-2-[9-(2-pyrrolidin-1-yl-acetyl)-6,7,8,9-tetrahydro-5-oxa-9-aza-benzocyclohepten-2-ylamino]-pyrimidin-4-ylamino}-thiophene-2-carboxylic acid methylamide], the IC50 in assay [1] and in assay [2] was 100 to 1000 nM throughout.
With `CNC(=O)c1ccccc1Nc1nc(Nc2ccc3c(c2)N(C(=O)CN2CCCC2)CCCO3)ncc1Cl` [Example 1706, 2-{5-Chloro-2-[9-(2-pyrrolidin-1-yl-acetyl)-6,7,8,9-tetrahydro-5-oxa-9-aza-benzocyclohepten-2-ylamino]-pyrimidin-4-ylamino}-N-methyl-benzamide], the IC50 in assay [1] and in assay [2] was 100 to 1000 nM throughout.
Regarding `CNC(=O)c1cccc(F)c1Nc1nc(Nc2ccc3c(c2)N(C)CCCO3)ncc1Cl` [Example 1707, 2-[5-Chloro-2-(9-methyl-6,7,8,9-tetrahydro-5-oxa-9-aza-benzocyclohepten-2-ylamino)-pyrimidin-4-ylamino]-3-fluoro-N-methyl-benzamide], the IC50 in assay [1] and in assay [2] was less than 100 nM throughout.
In the case of `CNC(=O)c1ccccc1Nc1nc(Nc2ccc3c(c2)N(C)CCCO3)ncc1Cl` [Example 1708, 2-[5-Chloro-2-(9-methyl-6,7,8,9-tetrahydro-5-oxa-9-aza-benzocyclohepten-2-ylamino)-pyrimidin-4-ylamino]-N-methyl-benzamide], the IC50 in assay [1] and in assay [2] was less than 100 nM throughout.
As to `C=CCOc1cc(N(C)C)cc(F)c1Nc1nc(Nc2ccc3c(c2)CCOC(=O)N3C)ncc1Cl` [Example 1709, 2-[4-(2-Allyloxy-4-dimethylamino-6-fluoro-phenylamino)-5-chloro-pyrimidin-2-ylamino]-5-methyl-8,9-dihydro-5H-7-oxa-5-aza-benzocyclohepten-6-one], the values for the IC50 in assay [1] and in assay [2] were less than 100 nM and 100 to 1000 nM, respectively.
The like results for `C=CCOc1cc(N(C)C)cc(F)c1Nc1nc(Nc2ccc3c(c2)CCN(CCOC)CC3)ncc1Cl` [Example 1710, N*4*-(2-Allyloxy-4-dimethylamino-6-fluoro-phenyl)-5-chloro-N*2*-[3-(2-methoxy-ethyl)-2,3,4,5-tetrahydro-1H-benzo[d]azepin-7-yl]-pyrimidine-2,4-diamine] were, in that order, less than 100 nM and 100 to 1000 nM.
The like results for `COCCN1CCc2ccc(Nc3ncc(Cl)c(Nc4c(F)cccc4C(=O)NCC4CC4)n3)cc2CC1` [Example 1711, 2-{5-Chloro-2-[3-(2-methoxy-ethyl)-2,3,4,5-tetrahydro-1H-benzo[d]azepin-7-ylamino]-pyrimidin-4-ylamino}-N-cyclopropylmethyl-3-fluoro-benzamide] were, in that order, 100 to 1000 nM and 1000 to 10000 nM.
Regarding `O=C1CCCc2ccc(Nc3ncc(Cl)c(Nc4c(F)cccc4C(=O)NCC4CC4)n3)cc2N1` [Example 1712, 2-[5-Chloro-2-(2-oxo-2,3,4,5-tetrahydro-1H-benzo[b]azepin-8-ylamino)-pyrimidin-4-ylamino]-N-cyclopropylmethyl-3-fluoro-benzamide], the IC50 in assay [1] and in assay [2] was 1000 to 10000 nM each time.
As for `C#CCNC(=O)c1cccc(F)c1Nc1nc(Nc2ccc3c(c2)N(C(C)=O)CCCO3)ncc1Cl` [Example 1713, 2-[2-(9-Acetyl-6,7,8,9-tetrahydro-5-oxa-9-aza-benzocyclohepten-2-ylamino)-5-chloro-pyrimidin-4-ylamino]-3-fluoro-N-prop-2-ynyl-benzamide], the IC50 in assay [1] is 100 to 1000 nM; in assay [2] it was less than 100 nM.
In the same order, the values of `CNC(=O)c1sccc1Nc1nc(Nc2ccc3c(c2)OCCCN3C(=O)CN2CCCC2)ncc1Cl` [Example 1715, 3-{5-Chloro-2-[9-(2-pyrrolidin-1-yl-acetyl)-6,7,8,9-tetrahydro-5-oxa-9-aza-benzocyclohepten-3-ylamino]-pyrimidin-4-ylamino}-thiophene-2-carboxylic acid methylamide] are 100 to 1000 nM and 100 to 1000 nM.
In the case of `C#CCNC(=O)c1cccc(F)c1Nc1nc(Nc2ccc3c(c2)OCCCN3C(=O)CN2CCCC2)ncc1Cl` [Example 1716, 2-{5-Chloro-2-[9-(2-pyrrolidin-1-yl-acetyl)-6,7,8,9-tetrahydro-5-oxa-9-aza-benzocyclohepten-3-ylamino]-pyrimidin-4-ylamino}-3-fluoro-N-prop-2-ynyl-benzamide], the IC50 is 100 to 1000 nM in assay [1] and less than 100 nM in assay [2].
In the case of `CN1C(=O)OCCc2cc(Nc3ncc(Cl)c(Nc4c(F)cccc4OCC(O)CO)n3)ccc21` (stereo not shown) [Example 1717, 2-{5-Chloro-4-[2-(2,3-dihydroxy-propoxy)-6-fluoro-phenylamino]-pyrimidin-2-ylamino}-5-methyl-8,9-dihydro-5H-7-oxa-5-aza-benzocyclohepten-6-one], the IC50 in assay [1] is 1000 to 10000 nM; in assay [2] it was less than 100 nM.
The like results for `C#CCNC(=O)c1cccc(F)c1Nc1nc(Nc2ccc3c(c2)OCCCN3CCN2CCCC2)ncc1Cl` [Example 1719, 2-{5-Chloro-2-[9-(2-pyrrolidin-1-yl-ethyl)-6,7,8,9-tetrahydro-5-oxa-9-aza-benzocyclohepten-3-ylamino]-pyrimidin-4-ylamino}-3-fluoro-N-prop-2-ynyl-benzamide] were, in that order, less than 100 nM and less than 100 nM.
In the same order, the values of `CCN1CC(O)(CO)COc2ccc(Nc3ncc(Cl)c(Nc4c(F)cccc4C(=O)NC)n3)cc21` (stereo not shown) [Example 1720, 2-[5-Chloro-2-(9-ethyl-7-hydroxy-7-hydroxymethyl-6,7,8,9-tetrahydro-5-oxa-9-aza-benzocyclohepten-2-ylamino)-pyrimidin-4-ylamino]-3-fluoro-N-methyl-benzamide] are less than 100 nM and 100 to 1000 nM.
In the same order, the values of `C#CCNC(=O)c1cccc(F)c1Nc1nc(Nc2ccc3c(c2)N(CC)CC(O)(CO)CO3)ncc1Cl` (stereo not shown) [Example 1721, 2-[5-Chloro-2-(9-ethyl-7-hydroxy-7-hydroxymethyl-6,7,8,9-tetrahydro-5-oxa-9-aza-benzocyclohepten-2-ylamino)-pyrimidin-4-ylamino]-3-fluoro-N-prop-2-ynyl-benzamide] are 100 to 1000 nM and 100 to 1000 nM.
For `CCN1CC(N2CCOCC2)COc2ccc(Nc3ncc(Cl)c(Nc4c(F)cccc4C(=O)NC)n3)cc21` (stereo not shown) [Example 1722, 2-[5-Chloro-2-(9-ethyl-7-morpholin-4-yl-6,7,8,9-tetrahydro-5-oxa-9-aza-benzocyclohepten-2-ylamino)-pyrimidin-4-ylamino]-3-fluoro-N-methyl-benzamide], the IC50 in assay [1] and in assay [2] was less than 100 nM each time.
As for `C#CCNC(=O)c1cccc(F)c1Nc1nc(Nc2ccc3c(c2)OCCCN3C(C)=O)ncc1Cl` [Example 1725, 2-[2-(9-Acetyl-6,7,8,9-tetrahydro-5-oxa-9-aza-benzocyclohepten-3-ylamino)-5-chloro-pyrimidin-4-ylamino]-3-fluoro-N-prop-2-ynyl-benzamide], the IC50 in assay [1] and in assay [2] was less than 100 nM each time.
For `COCCN1CCc2ccc(Nc3ncc(Cl)c(Nc4c(F)cccc4OCC(=O)OC)n3)cc2CC1` [Example 1727, (2-{5-Chloro-2-[3-(2-methoxy-ethyl)-2,3,4,5-tetrahydro-1H-benzo[d]azepin-7-ylamino]-pyrimidin-4-ylamino}-3-fluoro-phenoxy)-acetic acid methyl ester], the IC50 in assay [1] and in assay [2] was 1000 to 10000 nM in each case.
For `C#CCNC(=O)c1cc(F)cc(F)c1Nc1nc(Nc2ccc3c(c2)CCN(CCOC)CC3)ncc1Cl` [Example 1728, 2-{5-Chloro-2-[3-(2-methoxy-ethyl)-2,3,4,5-tetrahydro-1H-benzo[d]azepin-7-ylamino]-pyrimidin-4-ylamino}-3,5-difluoro-N-prop-2-ynyl-benzamide], the IC50 in assay [1] was 100 to 1000 nM; in assay [2], less than 100 nM.
In the same order, the values of `C#CCNC(=O)c1cc(F)cc(F)c1Nc1nc(Nc2ccc3c(c2)NC(=O)CCC3)ncc1Cl` [Example 1729, 2-[5-Chloro-2-(2-oxo-2,3,4,5-tetrahydro-1H-benzo[b]azepin-8-ylamino)-pyrimidin-4-ylamino]-3,5-difluoro-N-prop-2-ynyl-benzamide] are 1000 to 10000 nM and 100 to 1000 nM.
On to `COCCN1CCc2ccc(Nc3ncc(Cl)c(Nc4ccccc4S(=O)(=O)N4CCCC4)n3)cc2CC1` [Example 1730, 5-Chloro-N*2*-[3-(2-methoxy-ethyl)-2,3,4,5-tetrahydro-1H-benzo[d]azepin-7-yl]-N*4*-[2-(pyrrolidine-1-sulfonyl)-phenyl]-pyrimidine-2,4-diamine], for which the IC50 in assay [1] and in assay [2] was less than 100 nM each time.
For the compound `O=C1CCCc2ccc(Nc3ncc(Cl)c(Nc4ccccc4S(=O)(=O)N4CCCC4)n3)cc2N1` [Example 1731, 8-{5-Chloro-4-[2-(pyrrolidine-1-sulfonyl)-phenylamino]-pyrimidin-2-ylamino}-1,3,4,5-tetrahydro-benzo[b]azepin-2-one], the IC50 in assay [1] and in assay [2] was less than 100 nM in each case.
